Measurements from US8680076B2, “Methods of treatment, improvement and prevention using haloaryl substituted aminopurines” (Signal Pharmaceuticals, LLC, priority 2010, dated 2014).
Structures can show the parent of a compound that is named as a salt.

What was measured:
Assay type in all cases: in vivo
[1] = test system: DBA/2J mice, bleomycin-induced skin fibrosis; test: Bleomycin-induced dermal fibrosis mouse model (preventive treatment); details: 50 mg/kg/day IP, mean±SEM
Experimental: The selective JNK inhibitor Compound JNKi-1 was tested in a bleomycin-induced dermal fibrosis mouse model, which is considered to represent the early and inflammatory stages of systemic sclerosis (Akhmetshina A, Venalis P, Dees C, Busch N, Zwerina J, Schett G, Distler O, Distler J H, Treatment with imatinib prevents fibrosis in different preclinical models of systemic sclerosis and induces regression of established fibrosis, Arthritis Rheum. 2009; 60(1):219-24). […] In animal models it will similarly induce injury and fibrosis at the site of delivery.
Male and female DBA/2J mice were used. Mice were fed a standard diet with water ad libitum. The room temperature was kept constant at 22° C. with a humidity of 60%.
Compound JNKi-1 was dissolved in 0.5% carboxymethylcellulose (CMC)/0.25% Tween 80 in water. Bleomycin was dissolved in 0.9% sodium chloride (NaCl) at a concentration of 0.5 mg/mL in a total volume of 100 μL. The positive control compound Imatinib mesylate was dissolved in 0.9% NaCl at a concentration of 50 mg/kg/day in a total volume of 100 μL.
Two different dose levels of the JNK-inhibitor Compound JNKi-1 (50 mg/kg and 150 mg/kg, administered twice daily) were used to analyze the anti-fibrotic activity in a mouse model of bleomycin-induced skin fibrosis. […] DBA/2J mice (n=5/sex/group) were assigned to one of five treatment groups: • Control group: 0.5% CMC/0.25% Tween 80 in water orally (PO) twice daily (BID) and subcutaneous injections of 100 μL 0.9% NaCl. • Untreated bleomycin group: intradermal injection of bleomycin and 0.5% CMC/0.25% Tween 80 in water orally BID. • 50 mg/kg Compound JNKi-1: intradermal injection of bleomycin and Compound JNKi-1 orally BID. • 150 mg/kg Compound JNKi-1: intradermal injection of bleomycin and Compound JNKi-1 orally BID. • Positive control group: intradermal injection of bleomycin and imatinib 50 mg/kg/day administered intraperitoneally (IP).
Localized dermal fibrosis was induced by injection of bleomycin every other day for 3 weeks in defined areas of the upper back. Compound JNKi-1 or imatinib was administrated starting from the first dose of bleomycin.
The dermal thickness was determined by staining with hematoxylin and eosin (H & E). The activated fibroblasts (myofibroblasts) at the fibrotic lesions were quantified by immunohistochemistry (IHC) for alpha smooth muscle actin (α-SMA). Collagen concentration in lesional skin was analyzed by hydroxyproline assay. Data are expressed as mean±standard error of the mean (SEM). SPSS17.0 software and the Mann-Whitney-U-test were used for statistical analyses. A p-value of less than 0.05 was considered statistically significant.

CD-IGS rats = test: Rat model of excisional wound healing; details: 0.5 mg/kg qd orally
Experimental: Male CD-IGS rats (Strain code 001; n=32-52 per experiment) were obtained from Charles River Laboratories at a body weight of 175-195 g. Rats were housed in regular shoebox cages and allowed to become acclimated for a minimum of 1 week. Rats were fed Harlan Teklad (No. 7001) 4% mouse/rat diet and water ad libitum and were maintained on a 12-hour light/dark cycle.
Suspensions of Compound JNKi-1 were prepared in aqueous 0.5% CMC and 0.25% Tween-80. The formulations were homogenized using a TEFLON® pestle and mortar (Potter-Elvehjem tissue grinder). Vehicle (aqueous solution of 0.5% carboxymethylcellulose, and 0.25% Tween-80) and test article compounds were dosed at a volume of 5 mL/kg. Groups of rats (n=4-8/group) were dosed orally with vehicle, Dexamethasone (0.5 mg/kg) or Compound JNKi-1 (10 mg/kg, 30 mg/kg or 60 mg/kg) daily throughout the study starting 4 days prior to the procedure and continuing for up to […]. Compound JNKi-1 treated groups and the respective vehicle control group were dosed twice daily (bid) with an 8 hr separation between the doses. Dexamethasone treated animals and the respective vehicle control group were dosed once daily (qd) for the duration of the study.
Rats were anesthetized by inhaled isoflurane and the dorsal area was shaved and swabbed with 70% alcohol. Two points were marked 5.5 and 8.5 cm from the base of the skull along the midline. Four further points were marked 1 cm at either side of the midline, two at each of the marked points. These delineated the centers of four excisional wounds. The biopsy punch (6 mm diameter) was aligned vertically over the center of a mark and the epidermis, dermis and panniculus carnosus pierced by applying pressure and twisting at the same time. The skin plug was then removed. This was repeated for the remaining wounds (FIG. 15). The animal was then allowed to recover. All animals were housed singly during the experiment. Rats were monitored twice a day for the first 24 hours following the procedure and then daily until the end of the study. Body weights were recorded two or three times per week. Animals were sacrificed via CO2 asphyxiation at various time-points (day 1, 5, 10 or 14) following wounding.
Each wound size was measured using an electronic digital caliper and the percent of wound remaining open was calculated relative to the initial wound size recorded on day 0 (day of wounding procedure). Four values were averaged for each animal (four wounds on each rat). Measurements were taken at different time-points throughout the study.
Wounds and 2 mm of surrounding tissue were excised using an 8 mm biopsy punch. Wounds were harvested on days 1, 5, 10 and 14 following the procedure. Tissues were fixed in neutral buffered formalin for 3 h then transferred to 100% ethanol. Tissues were paraffin-embedded and four μm cross sections were cut and mounted on poly-lysine slides and stored in slide boxes at room temperature.
One slide for each specimen was stained for H&E to assess granulation-tissue formation and re-epithelialization of the wound gap.
Samples collected on day 10 and 14 were stained with Trichrome Stain (Masson) Kit (Sigma, HT15) to evaluate collagen deposition and remodeling.
Tissue sections were deparaffinized and hydrated to deionized (DI) water. Sections were incubated in preheated Bouin' Solution (Sigma, HT10-132) at 56° C. overnight and then thoroughly rinsed in tap water. Sections were stained in Weigert's Iron Hematoxylin solution (Sigma, HT10-79) for 15 min, washed, and counterstained with Biebrich Scarlet Acid Fuchsin solution. After washing, sections were incubated with Phosphotungstic-Phosphomolybdic acid solution for 15 min and then stained with Aniline Blue solution. Sections were dehydrated and cleared in xylene.
Wound healing was evaluated on day 10 and day 14 after the procedure. H&E sections were scored for re-epithelialization using the following criteria: […]

Tsk-1 mice = test: Tight skin-1 (Tsk-1) mouse model of systemic sclerosis; details: 50 mg/kg/day IP, 6 weeks
Experimental: The antifibrotic effects of the JNK inhibitor Compound JNKi-1 were tested in a murine tight skin-1 (Tsk-1) model of systemic sclerosis. In this model, a dominant mutation in the fibrillin 1 gene (Fbn1^Tsk+/−) leads to a systemic sclerosis-like disease with inflammatory infiltrates and massive fibrosis of the skin (Akhmetshina A, Venalis P, Dees C, Busch N, Zwerina J, Schett G, et al., Treatment with imatinib prevents fibrosis in different preclinical models of systemic sclerosis and induces regression of established fibrosis, Arthritis Rheum. 2009; 60(1):219-24).
Male and female TSK-1 mice were used. Mice were fed a standard diet with water ad libitum. The room temperature was kept constant at 22° C. with a humidity of 60%.
Compound JNKi-1 was dissolved in 0.5% carboxymethylcellulose (CMC)/0.25% Tween 80 in water. As vehicle control a solution of 0.5% CMC/0.25% Tween 80 in water was used. Imatinib mesylate was dissolved in 0.9% NaCl at a concentration of 50 mg/kg/day in a total volume of 100 μL.
Groups of Tsk-1 mice (n=4/sex/group) were assigned to one of five treatment groups: • Untreated wildtype (Fbn1^Tsk−/−) group received 0.5% CMC/0.25% Tween 80 in water orally (PO) twice daily (BID). • Untreated Fbn1Tsk+/− mice received 0.5% CMC/0.25% Tween 80 in water orally BID. • Compound JNKi-1-treated Fbn1^Tsk+/− received 50 mg/kg orally BID. • Compound JNKi-1-treated Fbn1^Tsk+/− received 150 mg/kg orally BID. • Imatinib mesylate-treated Fbn1^Tsk+/− group received 50 mg/kg/day administered intraperitoneally (IP).
Treatments with Compound JNKi-1 and control compound were started at Week 4. After 6 weeks of treatment, mice were sacrificed, and the antifibrotic effects from each treatment were analyzed.
Antifibrotic effects were determined by measuring the dermal thickness and quantifying the numbers of myofibroblasts in the lesional skin. Dermal thickness was determined by measuring the distance from the epidermal/dermal border to the dermal/subdermal border in H & E-stained sections at four different sites. The number of myofibroblasts was quantified by staining for alpha smooth muscle actin (α-SMA) in paraffin-embedded sections. Data are expressed as mean±standard error of the mean (SEM). SPSS17.0 software and the Mann-Whitney-U-test were used for statistical analyses. A p-value of less than 0.05 was considered statistically significant.

Structure (SMILES): Cc1ccc(NC(=O)c2ccc(CN3CCN(C)CC3)cc2)cc1Nc1nccc(-c2cccnc2)n1 [imatinib, reference compound]
- reduction in dermal thickening ([1]; 3 weeks bleomycin): 46%±5%
- decrease of myofibroblast count [1]: 51%±10%

Structure (SMILES): C[C@@H]1C[C@H]2[C@@H]3CCC4=CC(=O)C=C[C@]4(C)[C@@]3(F)[C@@H](O)C[C@]2(C)[C@@]1(O)C(=O)CO [Dexamethasone, reference compound]
- loss of initial body weight mass (CD-IGS rats): about 10%
- wound gap remaining open at day 10 post wounding (CD-IGS rats): approximately 70%

Structure (SMILES): Cc1ccc(NC(=O)c2ccc(CN3CCN(C)CC3)cc2)cc1Nc1nccc(-c2cccnc2)n1 [imatinib mesylate, reference compound]
- decrease of number of myofibroblasts (Tsk-1 mice): 99%±15%
- decrease of hypodermal thickness (Tsk-1 mice; compared to untreated mice): 71%±7%
